The results in this text go back to US20250382305A1 (PTC THERAPEUTICS, INC., priority 2022, published 2025).

One assay deals with ATXN3 pre-mRNA. Put plainly: RT-qPCR Assay to Quantify Exon 4 Skipping in ATXN3 pre-mRNA in Cells. It is filed as cell-based. As to conditions: percent exon 4 skipping in ATXN3 pre-mRNA, RT-qPCR of cell lysates; average IC50. Summed up:
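IC50 derives from a dose-response fit of percent exon 4 skipping, quantified by RT-qPCR on crude lysates. Compounds tested as 7-point 3.16-fold dilutions in duplicate; cells (10,000/well) were exposed for 24 h at 37 °C before lysis.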

Assay [1] has as its system Total ATXN3 (tATXN3) protein. Put plainly: Endogenous Total ATXN3 (tATXN3) Protein Assay (MSD immunoassay of cell lysates). Format: cell-based. As to conditions: average IC50, total ATXN3 protein in cell lysate after 48 h with compound (Table 1). Summed up:
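By electrochemiluminescent MSD sandwich immunoassay (mouse monoclonal capture, rabbit monoclonal and SULFO-TAG anti-rabbit detection), endogenous ATXN3 was quantified in lysates of cells treated 48 h at 37° C at 10,000 cells/well. Treatment used a 7-point 3.16-fold duplicate dilution series, with average IC50 grouped into star categories.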

As for “2-((1R,6R)-6-aminocyclohex-3-en-1-yl-2,2,3,4,5,5-d6)-N-benzyl-5-chloro-3-methylthieno[3,2-b]pyridin-7-amine and 2-((1S,6S)-6-aminocyclohex-3-en-1-yl-2,2,3,4,5,5-d6)-N-benzyl-5-chloro-3-methylthieno[3,2-b]pyridin-7-amine [Compound 278]”, the IC50 (with ATXN3 pre-mRNA; in assay [1]) was 30 to 300 nM in each case.
On to “5-chloro-3-iodo-2-((1R,6R)-6-(methylamino)cyclohex-3-en-1-yl)-N-(thiophen-2-ylmethyl)thieno[3,2-b]pyridin-7-amine and 5-chloro-3-iodo-2-((1S,6S)-6-(methylamino)cyclohex-3-en-1-yl)-N-(thiophen-2-ylmethyl)thieno[3,2-b]pyridin-7-amine [Compound 387]”, for which the IC50 was 300 to 1000 nM in the assay with ATXN3 pre-mRNA and 30 to 300 nM in assay [1].
For the compound `CCc1c([C@H]2CCCCCC[C@@H]2N)sc2c(NCc3cccs3)cc(Cl)nc12` [Compound 164, 2-((1S,2S)-2-aminocyclooctyl)-5-chloro-3-ethyl-N-(thiophen-2-ylmethyl)thieno[3,2-b]pyridin-7-amine], the IC50 in the assay with ATXN3 pre-mRNA was 300 to 1000 nM; in assay [1] it was more than 1000 nM.
As to “2-((3R,4S)-3-aminotetrahydro-2H-pyran-4-yl)-5-chloro-3-(prop-1-yn-1-yl)-N-(thiophen-2-ylmethyl)thieno[3,2-b]pyridin-7-amine and 2-((3S,4R)-3-aminotetrahydro-2H-pyran-4-yl)-5-chloro-3-(prop-1-yn-1-yl)-N-(thiophen-2-ylmethyl)thieno[3,2-b]pyridin-7-amine [Compound 227]”, the IC50 (in the assay with ATXN3 pre-mRNA; in assay [1]) was not above 30 nM throughout.
With `Cc1c([C@H]2OCCC[C@@H]2N)sc2c(NCc3ccco3)cc(Cl)nc12` [Compound 133, 2-((2S,3S)-3-aminotetrahydro-2H-pyran-2-yl)-5-chloro-N-(furan-2-ylmethyl)-3-methylthieno[3,2-b]pyridin-7-amine], the values for the IC50 (in the assay with ATXN3 pre-mRNA; in assay [1]) were not above 30 nM and 30 to 300 nM, respectively.
As for `N[C@H]1CCCCC[C@H]1c1sc2c(NCc3cccs3)cc(Cl)nc2c1Br` [Compound 73, 2-((1R,2S)-2-aminocycloheptyl)-3-bromo-5-chloro-N-(thiophen-2-ylmethyl)thieno[3,2-b]pyridin-7-amine], the IC50 (in the assay on ATXN3 pre-mRNA; in assay [1]) was 300 to 1000 nM in each case.
As for `N[C@H]1CCCC[C@@H]1c1sc2c(NCc3cccs3)cc(Cl)nc2c1Br` [Compound 55, 2-((1S,2S)-2-aminocyclohexyl)-3-bromo-5-chloro-N-(thiophen-2-ylmethyl)thieno[3,2-b]pyridin-7-amine], the IC50 (with ATXN3 pre-mRNA; in assay [1]) was 30 to 300 nM each time.
As for `N[C@@H]1CCCC[C@H]1c1sc2c(NCc3ccccc3)cc(Cl)nc2c1Cl` [Compound 368, 2-((1R,2R)-2-aminocyclohexyl)-N-benzyl-3,5-dichlorothieno[3,2-b]pyridin-7-amine], the 50% inhibitory concentration (IC50) (in the assay on ATXN3 pre-mRNA; in assay [1]) was 30 to 300 nM in each case.
For `N[C@@H]1CCCC(F)(F)[C@@H]1c1sc2c(NCc3cccs3)cc(Cl)nc2c1Br.N[C@H]1CCCC(F)(F)[C@H]1c1sc2c(NCc3cccs3)cc(Cl)nc2c1Br` (mixture of isomers) [Compound 359, 2-((1R,6R)-6-amino-2,2-difluorocyclohexyl)-3-bromo-5-chloro-N-(thiophen-2-ylmethyl)thieno[3,2-b]pyridin-7-amine and 2-((1S,6S)-6-amino-2,2-difluorocyclohexyl)-3-bromo-5-chloro-N-(thiophen-2-ylmethyl)thieno[3,2-b]pyridin-7-amine], the IC50 (with ATXN3 pre-mRNA; in assay [1]) was 30 to 300 nM each time.
Turning to `N[C@H]1CCC[C@@H]1c1sc2c(NCc3ccccc3)cc(Cl)nc2c1Br` [Compound 166, 2-((1S,2S)-2-aminocyclopentyl)-N-benzyl-3-bromo-5-chlorothieno[3,2-b]pyridin-7-amine], the IC50 (in the assay on ATXN3 pre-mRNA; in assay [1]) was 30 to 300 nM throughout.
As for `N[C@@H]1CCC[C@H]1c1cc2nc(Cl)cc(NCc3cccs3)c2s1` [Compound 112, 2-((1R,2R)-2-aminocyclopentyl)-5-chloro-N-(thiophen-2-ylmethyl)thieno[3,2-b]pyridin-7-amine], the IC50 (in the assay with ATXN3 pre-mRNA; in assay [1]) was more than 1000 nM in each case.
As for “6-((1S,6S)-6-aminocyclohex-3-en-1-yl)-4-((furan-2-ylmethyl)amino)-7-methylthieno[3,2-d]pyrimidine-2-carbonitrile [Compound 282]”, the IC50 (in the assay with ATXN3 pre-mRNA; in assay [1]) was 30 to 300 nM in each case.
As for “(1R,2S,3R)-2-amino-3-(5-chloro-3-methyl-7-((thiophen-2-ylmethyl)amino)thieno[3,2-b]pyridin-2-yl)cyclohexan-1-ol and (1S,2R,3S)-2-amino-3-(5-chloro-3-methyl-7-((thiophen-2-ylmethyl)amino)thieno[3,2-b]pyridin-2-yl)cyclohexan-1-ol [Compound 374]”, the half-maximal inhibitory concentration (IC50) (in the assay on ATXN3 pre-mRNA; in assay [1]) was 30 to 300 nM each time.
Consider `N[C@@H]1CC=CC[C@H]1c1sc2c(NCc3ccccc3)cc(Cl)nc2c1I` [Compound 345, 2-((1R,6R)-6-aminocyclohex-3-en-1-yl)-N-benzyl-5-chloro-3-iodothieno[3,2-b]pyridin-7-amine], for which the IC50 (with ATXN3 pre-mRNA; in assay [1]) was 30 to 300 nM each time.
For the compound `N[C@H]1CCCO[C@@H]1c1sc2c(NCc3cccs3)cc(Cl)nc2c1Cl` [Compound 18, 2-[(2S,3S)-3-aminotetrahydropyran-2-yl]-3,5-dichloro-N-(2-thienylmethyl)thieno[3,2-b]pyridin-7-amine], the IC50 (with ATXN3 pre-mRNA; in assay [1]) was not above 30 nM in each case.
For `N[C@H]1CCCC[C@@H]1c1sc2c(NCc3ccco3)cc(Cl)nc2c1Cl` [Compound 173, 2-((1S,2S)-2-aminocyclohexyl)-3,5-dichloro-N-(furan-2-ylmethyl)thieno[3,2-b]pyridin-7-amine], the IC50 (in the assay with ATXN3 pre-mRNA; in assay [1]) was not above 30 nM in each case.
With `N[C@H]1CC=CC[C@@H]1c1sc2c(NCc3cccs3)cc(Cl)nc2c1C#CC[C@@H](O)CO` [Compound 211, (R)-5-(2-((1S,6S)-6-aminocyclohex-3-en-1-yl)-5-chloro-7-((thiophen-2-ylmethyl)amino)thieno[3,2-b]pyridin-3-yl)pent-4-yne-1,2-diol], the IC50 (with ATXN3 pre-mRNA; in assay [1]) was not above 30 nM in each case.
Consider “(1R,5S,6R)-6-amino-5-(3-bromo-5-chloro-7-((thiophen-2-ylmethyl)amino)thieno[3,2-b]pyridin-2-yl)cyclohex-2-en-1-ol and (1S,5R,6S)-6-amino-5-(3-bromo-5-chloro-7-((thiophen-2-ylmethyl)amino)thieno[3,2-b]pyridin-2-yl)cyclohex-2-en-1-ol [Compound 153]”, for which the IC50 (with ATXN3 pre-mRNA; in assay [1]) was not above 30 nM throughout.
With “2-((2R,3R)-3-aminotetrahydro-2H-pyran-2-yl)-3-bromo-5-chloro-1-(difluoromethyl)-N-(thiophen-2-ylmethyl)-1H-pyrrolo[3,2-b]pyridin-7-amine and 2-((2S,3S)-3-aminotetrahydro-2H-pyran-2-yl)-3-bromo-5-chloro-1-(difluoromethyl)-N-(thiophen-2-ylmethyl)-1H-pyrrolo[3,2-b]pyridin-7-amine [Compound 224]”, the IC50 (with ATXN3 pre-mRNA; in assay [1]) was not above 30 nM each time.
Turning to “5-(2-chloro-6-((1R,6R)-6-(methylamino)cyclohex-3-en-1-yl)-4-((thiophen-2-ylmethyl)amino)thieno[3,2-d]pyrimidin-7-yl)pent-4-yn-1-ol and 5-(2-chloro-6-((1S,6S)-6-(methylamino)cyclohex-3-en-1-yl)-4-((thiophen-2-ylmethyl)amino)thieno[3,2-d]pyrimidin-7-yl)pent-4-yn-1-ol [Compound 293]”, the IC50 (in the assay on ATXN3 pre-mRNA; in assay [1]) was 30 to 300 nM in each case.
For the compound `N[C@@H]1CCCO[C@H]1c1sc2c(NCc3ccco3)cc(Cl)nc2c1Br` [Compound 118, 2-((2R,3R)-3-aminotetrahydro-2H-pyran-2-yl)-3-bromo-5-chloro-N-(furan-2-ylmethyl)thieno[3,2-b]pyridin-7-amine], the IC50 (in the assay on ATXN3 pre-mRNA; in assay [1]) was 300 to 1000 nM in each case.
With `N[C@@H]1CCCC[C@H]1c1sc2c(NCc3cccs3)cc(Cl)nc2c1I` [Compound 58, 2-((1R,2R)-2-aminocyclohexyl)-5-chloro-3-iodo-N-(thiophen-2-ylmethyl)thieno[3,2-b]pyridin-7-amine], the IC50 (in the assay with ATXN3 pre-mRNA; in assay [1]) was more than 1000 nM throughout.
For “2-((1R,2R,6S)-2-amino-6-fluorocyclohexyl)-3-bromo-5-chloro-N-(thiophen-2-ylmethyl)thieno[3,2-b]pyridin-7-amine and 2-((1S,2S,6R)-2-amino-6-fluorocyclohexyl)-3-bromo-5-chloro-N-(thiophen-2-ylmethyl)thieno[3,2-b]pyridin-7-amine [Compound 335]”, the IC50 (in the assay with ATXN3 pre-mRNA; in assay [1]) was 30 to 300 nM each time.
For the compound `N[C@H]1CC=CC[C@@H]1c1sc2c(NCc3nccs3)cc(Cl)nc2c1Cl` [Compound 178, 2-((1S,6S)-6-aminocyclohex-3-en-1-yl)-3,5-dichloro-N-(thiazol-2-ylmethyl)thieno[3,2-b]pyridin-7-amine], the IC50 (with ATXN3 pre-mRNA; in assay [1]) was not above 30 nM each time.
On to `N[C@H]1CCCCC[C@@H]1c1sc2c(NCc3cccs3)cc(Cl)nc2c1Cl` [Compound 79, 2-((1S,2S)-2-aminocycloheptyl)-3,5-dichloro-N-(thiophen-2-ylmethyl)thieno[3,2-b]pyridin-7-amine], for which the IC50 (in the assay on ATXN3 pre-mRNA; in assay [1]) was 30 to 300 nM in each case.

What is called IC50 is the concentration that inhibits the measured activity by half.
